In patent US20060276440A1, “Treatment of inflammatory disorders” (priority 2005, published 2006):
“Also recorded” adds a separate entry of the source.

What was measured:
Assay type in all cases: cell-based, human
[1] = tested on: MMP-2; assay: MMP-2 production in SW1353 cells (ELISA, control); settings: SW-1353; FIG. 5
Method: MMP-2 production can be used as control for the potential side-effects of compounds. This is because MMP-2 levels are not believed to change in response to IL-1/OSM.
(§1) The same supernatants of culture media used in the primary screen were assayed for IL-1/OSM-stimulated pro-MMP-13 production and MMP-2 production by enzyme-linked immunosorbent assay (ELISA).
(§2) For matrix metalloproteinase (MMP) measures, SW1353 cells were grown to confluence in 24 well plates, washed in DMEM (with Ham's F12) and placed in 500 ul of serum free DMEM/F-12 with 0.2% lactalbumin hydrosylate with and without OsM/IL-1. After 24 hrs, supernatants were collected and the amounts of proMMP13, totalMMP2, and proMMP1 were measured using Quantikine® ELISA kit for human MMPs (R & D systems, Minneapolis, Minn.). All MMP measures were normalized to viable cell numbers based on a tetrazolium (MTS) colorimetric measure (Promega, Madison, Wis.).
(§3) Multiple control assays were performed to investigate the selectivity of CA4 action. Matrix metalloproteinase-2 (MMP-2) production in SW1353 cells was tested. Mutation of MMP-2 causes a multicentric osteolysis and arthritis syndrome (Martignetti et al., Nat Genet 28, 261-265 (2001) the entire contents of which are incorporated herein by reference), and theoretically its expression should not be affected in treating RA. CA4 at approximately 110 nM had no effect on production of MMP-2 (FIG. 12E). An A549 Sentinel line that responded to TGF-β was then tested.

[2] = tested on: OSM signaling; assay: […] 4A1 cell line (A549) OSM-stimulated luciferase reporter assay; settings: Homo sapiens, A549; 4A1 cell line; primary screen (Table 1); read-out: IC50, inhibition of OSM-stimulated (luciferase) reporter activity
Method: Cell line 4A1 was established in A549 cells (a human lung cancer cell line) using BV32, a vector that carries both the luciferase and GFP reporters. Assay development was performed to optimize the conditions of the OSM-response in the 4A1 […]® line.
Reporter activities of Sentinel® clones were measured using the Steady-Glo® Luciferase assay system (Promega, Madison, Wis.), according to the manufacturer's instructions, and were normalized to cell numbers based on nucleic acid quantification (CyQuant® cell proliferations assay, Molecular Probes/Invitrogen, Carlsbad, Calif.). In order to identify potential anti-inflammatory compounds, the OSM-responding Sentinel® clone 4A1 was used for a library screen of approximately 1800 compounds.

[3] = tested on: MMP-13; assay: IL-1/OSM-stimulated pro-MMP-13 production in SW-1353 cells (ELISA); settings: Homo sapiens, SW1353; SW-1353; IL-1/OSM-stimulated; secondary screen (Example 2); read-out: IC50, inhibition of MMP-13 (pro-MMP-13) production
Excerpt: To test the compounds identified in the preliminary reporter (luciferase) activity […]® line 4A1 screen for inhibition of OSM signaling in a more physiologically relevant environment, a human cell line involved in an inflammatory disease was adapted. The human cartilage cell line SW-1353 was selected.
In the human cartilage cell line SW-1353, while IL-1 is believed to activate expression of collagenases to a small degree and OSM is believed to have no effect on collagenase expression, a combination of IL-1 and OSM is believed to lead to a synergistic activation of collagenases to much higher levels (S. Cowell et al., Biochem J 331 (Pt 2), 453 (Apr. 15, 1998). Regulation of MMP-13 in SW-1353 cells is, therefore, believed to provide a biomarker which can be used to monitor IL-1/OSM-mediated signal transduction events in secondary assays.
as §1, §2

[4] = tested on: TGF-β; assay: A549 Sentinel line TGF-β-stimulated reporter activity; settings: inhibitor of TGF-β receptor, control
Method: as §3

| Compound | inhibitory effect on MMP-13 expression compared to MMP-2 expression [1] | IC50 [2] [nM] | IC50 [3] [nM] | effect on TGF-β-induced reporter activity [4] |
| --- | --- | --- | --- | --- |
| CCc1oc2ccccc2c1C(=O)c1cc(Br)c(O)c(Br)c1 [Benzobromarone (8), (3,5-dibromo-4-hydroxyphenyl)(2-ethylbenzofuran-3-yl)methanone] | greater inhibitory effects on MMP-13 expression compared to MMP-2 expression; also recorded: preferentially inhibit MMP-13 expression compared to MMP-2 expression | 2200 | 400 |  |
| CC(C)C1=CC2=CCC3[C@](C)(C(=O)O)CCC[C@@]3(C)[C@@H]2CC1 (stereo in doubt) [Abietic acid (2), abietic acid] | greater inhibitory effects on MMP-13 expression compared to MMP-2 expression; also recorded: preferentially inhibit MMP-13 expression compared to MMP-2 expression | 12 | 6 |  |
| C=C(C)[C@H]1CC[C@@]2(C(=O)O)CC[C@@]3(C)[C@@H](CC[C@H]4[C@]5(C)CC[C@@H](O)C(C)(C)[C@H]5CC[C@@]43C)[C@H]12 (stereo in doubt) [Betulinic acid (9), betulinic acid] | greater inhibitory effects on MMP-13 expression compared to MMP-2 expression; also recorded: preferentially inhibit MMP-13 expression compared to MMP-2 expression | 3300 | 600 |  |
| NC(=O)c1ccc(-c2nc(-c3ccc4c(c3)OCO4)c(-c3ccccn3)[nH]2)cc1 [SB431542, reference compound] |  |  |  | able to inhibit |
